The source of these data is patent US8889902B2, “Acetylsalicylic acid salts” (priority 2009, dated 2014).

The structures appear in SMILES notation.

The test system of series [1] is FeCl3 induced carotid artery thrombosis. As to the kind of experiment: FeCl3 induced carotid artery thrombosis, time till occlusion. In kind it is in vivo, Wistar rats. The settings on record: for Time till occlusion, %: control = 100. An excerpt:
We chose an experimental thrombosis model based on rat arterial thrombosis induced by FeCl3 (Kurz K et al, Thromb Res 1990, 60:269-280. Wang X, Xu L, Thromb Res 2005,115:95-100). Tissue damage initiated by iron-mediated chemical oxidation predisposes the injured area to platelet adherence and aggregation followed by coagulation activation and fibrin deposition. Male Wistar rats with mass 350-420 g were used in experiments. Animals were kept in groups of 7-8 in adequate cages in climatized room at 22±1° C., relative humidity 60±5% and 12/12-hour light/darkness cycle with free access to feed and water. All experiments were carried out in accordance with the European Community Council's Directive of 24 Nov. 1986 (86/609/EEC) relative to experimental animal care. All efforts were made to minimize animal suffering and to reduce the number of animals used. Rats were randomly divided into various experimental groups, each consisting of not less than seven animals. The vehicle or test compound MD (25 mg/kg), NA (25 mg/kg), MASA (10 mg/kg), ASA (5 mg/kg) and combination MD+NA (25+25 mg/kg), MASA+NA (10+25 mg/kg) and ASA+NA (5+25 mg/kg) was administered by oral route 2 h before the initiation of thrombosis. Parallel experiments were conducted to compare the effects of a single dose of test substance (given 2 h before the initiation of thrombosis) and repeated doses (once daily for 3 days). […] Rats were anaesthetized with pentobarbital sodium (50 mg/kg, i.p. and 10 mg/kg/h) and were placed on a heat controlled operating table throughout the experiment to maintain a body temperature of 37° C. One of the carotid arteries was exposed by cervical incision, separated from the adherent tissue, vagus nerve, and a flow probe (electromagnetic blood flow meter MFV 1200, Nicon Kohden, Japan) was placed on the exposed segment of common carotid artery to record the blood flow. After a stabilization period of 15 min, thrombosis was induced by topically applying (in contact with the adventitial surface of vessel) two pieces (2×1 mm) of Whatman filter paper, soaked in 15% solution of FeCl3. Thrombosis time of carotid artery was recorded as time taken for the complete cessation of the blood flow and has been reported as time till occlusion (TTO).

The subject of a further series is tail bleeding. As to the kind of experiment: Tail bleeding time during thrombosis experiment. Format: in vivo, rats. The settings on record: for Tail bleeding time, %: control = 100. Here is the method: Additionally during the thrombosis experiment rat tail bleeding time was measured. The tail was transected 5 mm from the tip with scalpel and the tail was immediately immersed into 37° C. warm isotonic saline until termination of bleeding was noted. Termination of bleeding was defined as the time of complete stop of bleeding with no recurrence of bleeding within the next 30 s.

The subject of series [2] is platelet aggregation. As to the kind of experiment: Platelet aggregation ex vivo after 3 days treatment. In kind it is in vivo, rats. The settings on record: 5 mg/kg/d p.o. 3 days. Here is the method:
Platelet aggregation was studied using whole blood impedance aggregometry on Multiplate (Multiple Platelet Function Analyzer, Dynabyte Medical, Germany) (Toth O et al, Thromb Haemost 2006; 96:781-788. […] Blood samples for in vitro experiment were collected from healthy donor B. […] In the ex vivo experiment blood was collected into plastic tubes covered with hirudin (Dynabyte Medical, Germany) from narcotized rats that were treated for 3 previous days with test substances p.o. The measurements were performed according to modified Dynabyte Medical protocol. […] After 5 min incubation and stirring at 37° C., measurements were initiated by adding of the appropriate agonist solution (sourced from Dynabyte Medical, Germany): After the thrombosis experiment the narcotized animals who received test substances for 3 days were used for platelet aggregation test ex vivo. […] Blood samples were used for measurement between 30 min and 4 h after collection. The measurements were performed according to modified Dynabyte Medical protocol (see above under Platelet aggregation).

For series [3], the system named is platelet aggregation. As to the kind of experiment: Platelet aggregation in vitro, whole blood impedance aggregometry (Multiplate). Format: cell-based, healthy donor. The settings on record: 3 × 10^−4. Here is the method: Platelet aggregation was studied using whole blood impedance aggregometry on Multiplate (Multiple Platelet Function Analyzer, Dynabyte Medical, Germany) (Toth O et al, Thromb Haemost 2006; 96:781-788. […] Blood samples for in vitro experiment were collected from healthy donor B. […] In the ex vivo experiment blood was collected into plastic tubes covered with hirudin (Dynabyte Medical, Germany) from narcotized rats that were treated for 3 previous days with test substances p.o. The measurements were performed according to modified Dynabyte Medical protocol. […] After 5 min incubation and stirring at 37° C., measurements were initiated by adding of the appropriate agonist solution (sourced from Dynabyte Medical, Germany): 1) adenosine diphosphate (ADP)-ADP-Test. ADP stimulates platelet activation by the ADP receptors (P2Y 12 and other). […] 3) ADP HS test (prostaglandin E1 in combination with ADP). […] Aggregation curves were recorded for 6 min. and analyzed using Dynabyte Medical software. We calculated the following parameters of platelet aggregation: […] It is affected by the total height of the aggregation curve as well as by its slope and is best suited to express the overall platelet activity.

The nature of series [4]: Stability at ambient conditions.
A further series relates to rat ear skin temperature. The series is described as follows: Ear skin temperature rise caused by NA, s.c. administration. In kind it is in vivo, Wistar rats. The settings on record: LA 0.3 mg/kg s.c. alone. The protocol: Male Wistar rats (280-330 g) were used. Animals were held in groups of 6 in climatized rooms at 22±1° C., relative humidity 60±5%, and 12/12-hour light/dark cycle with free access to drinking water and feed (R3—Lactamin AB, Sweden). For registration of changes in skin temperature of intact rats contactless temperature recording method was used (Papaliodis D et al, Br J Pharmacol 2008; 153:1382-1387). Temperature measurements were performed with a hand-held infrared thermometer (Model Proscan 510, TFA-Dostman). Animals were habituated to handling and to the infrared probe for 3 days before use. Temperature readings from the dorsal side of each ear were recorded without anaesthesia at beginning and during experiment. The ear temperature was measured every 5 min. for a period of up to 60 min. The animals were returned to their cages between measurements. NA, MD and MASA were dissolved in saline and pH was corrected immediately before usage. LA (MK 0524, Cayman Chemicals) was first dissolved in DMSO and then freshly diluted with 0.9% NaCl, on each day of the experiment. The rate of NA and LA combination was based on Summary of Product Characteristics for Tredaptive™ (nicotinic acid/laropiprant) 1000 mg/20 mg modified-release tablets.
The influence of LA, MD or MASA alone on skin temperature was checked. Each investigated compound was introduced s.c. simultaneously with NA as LA+NA [0] or 30 min in advance to NA as LA+NA [30].

[5] abbreviates: 5 mg/kg/d p.o., repeated, 3 days.

For `COC(=O)[C@H](c1ccccc1Cl)N1CCc2sccc2C1` [CL, clopidogrel], the Time till occlusion in series [1] (5 mg/kg p.o., single dose 2 h before) is 31.7 ± 2.40^1 min; in series [1] (setting [5]), 49.1 ± 7.75^1 min. Besides, the “Time till occlusion, %” value is 130% in series [1] (5 mg/kg p.o., single dose) and 194% in series [1] (setting [5]). The Tail bleeding time is reported as 11.9 ± 3.62 min with tail bleeding (5 mg/kg p.o., single dose) and 18.3 ± 3.78^1 min in the series on tail bleeding (setting [5]). Further, the “Tail bleeding time, %” value worked out at 134% in the series with tail bleeding (5 mg/kg p.o., single dose) and 213% with tail bleeding (setting [5]). For the same compound, the results for the AUC with platelet aggregation [2] (AA induced), in the series on platelet aggregation [2] (ADP induced) and with platelet aggregation [2] (PGE1 + ADP induced) were 905 ± 53.5^& AU*min, 423 ± 39.4^2& AU*min and 259 ± 49.3^2& AU*min, respectively. Further, the figures for the Amax with platelet aggregation [2] (AA induced), in the series with platelet aggregation [2] (ADP induced) and with platelet aggregation [2] (PGE1 + ADP induced) were 160.7 ± 13.5^&@ AU, 68.2 ± 15.1^2& AU and 49.7 ± 9.9^3&& AU, respectively.
For `OCCN(CCO)c1nc(N2CCCCC2)c2nc(N(CCO)CCO)nc(N3CCCCC3)c2n1` [DI, dipyridamole], in the series with platelet aggregation [3] (AA induced), the AUC is reported as 1104 ± 45.5^&@@ AU*min and the Amax is 173.9 ± 5.2^&@@ AU. Further, in the series with platelet aggregation [3] (ADP induced), the AUC is 665 ± 44.1^2& AU*min and the Amax was 111.1 ± 6.9^2& AU.
As for `CC(=O)Oc1ccccc1C(=O)[O-].C[N+](C)(C)CCCC(=O)O` [Example 1, 4-trimethylammoniobutanoate Acetylsalicylic Acid Addition Salt], the “solubility in water (in words)” value in the series “Solubility in water” is “water soluble”. Moreover, the “stability (in words)” value in series [4] was “stable at ambient conditions”.
For `CS(=O)(=O)c1cc(F)cc2c3c(n(Cc4ccc(Cl)cc4)c12)[C@@H](CC(=O)O)CC3` [LA, laropiprant], the Maximum temperature with rat ear skin temperature is 29.5 ± 0.35^$$$ ° C.
